Measurements: patent publication US20250101063A1, “POLYPEPTIDE COMPOUND AND USE THEREOF IN TREATMENT OF ENTERITIS” (Sichuan Gooddoctor Panxi Pharmaceutical Co., Ltd., priority 2022, published 2025)
Entries after “also recorded” stand apart in the source; their conditions may differ. Where no end group is shown, it is not given here.

Experiments:
[1] = test system: zebrafish model of intestinal mucosal injury; test: Efficacy in relieving colitis: intestinal lumen area in TNBS-treated zebrafish; assay type: in vivo; conditions: for Intestinal lumen area (pixels, mean ± SE): 2 days after TNBS, n = 10; for Activity in relieving intestinal lumen dilatation: 1000 μg/mL, significance vs model control group of the same batch; for Intestinal lumen area compared with the model control group (in words): 250, 500, 1000 μg/mL, Table 4
Experimental: Experimental animals: Wild-type AB strain zebrafishes, bred by natural pair mating. Zebrafishes aged 3 days post fertilization (3 dpf). Zebrafishes were kept in fish farming water at 28° C. (water quality: 200 mg of instant sea salt in each 1L of reverse osmosis water, with the conductivity of 450-550 μS/cm; pH of 6.5-8.5; and hardness of 50-100 mg/L CaCO3), the experimental animal use license number is: SYXK (Zhe) 2012-0171, and the breeding management met the requirements of the international AAALAC certification (certification number: 001458).
(1) Grouping: Polypeptide group: prepared into a stock solution of 20.0 mg/mL with ultrapure water and stored at −20° C.
Positive control group: prednisone, as white powder, with batch number C10016501, Shanghai Macklin Biochemical Technology Co., Ltd., stored at 4° C.; prepared into a 15.0 mg/mL stock solution with DMSO, and stored in aliquots at −20° C.
Normal control group and model control group.
(2) Experimental method: 3 dpf wild-type AB strain zebrafishes were randomly selected and placed in a 6-well plate, with 30 zebrafishes in each well (experimental group). Except for the normal control group, all other experimental groups were given TNBS in water to establish the zebrafish model of intestinal mucosal injury. After 2 days of treatment at 28° C., TNBS was removed, and polypeptide compound in water (at concentrations shown in Table 4) was given respectively, and for the positive control, prednisone was 15.0 μg/mL. A normal control group (healthy group) and a model control group (intestinal mucosal injury group) were set up at the same time. The capacity of each well (experimental group) was 3 mL. After 2 days of treatment at 28° C., 10 zebrafishes were randomly selected from each experimental group and photographed under a dissecting microscope. NIS-Elements D 3.20 advanced image processing software was used to analyze and collect data, and the intestinal lumen area of the zebrafish was analyzed. The statistical analysis results of this indicator were used to evaluate the efficacy of the samples in relieving colitis. The statistics results were expressed as mean±SE. SPSS26.0 software was used for statistical analysis, and p<0.05 indicates statistically significant difference.
The concentration gradient of the test substances set in this experimental system was 250 μg/mL, 500 μg/mL, and 1000 μg/mL. […] When the concentration of the test substance was further increased for intervention, the death phenomenon of zebrafishes was found in the group; therefore, in the subsequent rounds of activity evaluation, each test polypeptide compound was uniformly administered at 1000 μg/mL for intervention.

[2] = test system: TNBS-induced model of acute inflammatory bowel disease (UC) in SD rat; test: TNBS-induced model of acute inflammatory bowel disease (UC) in SD rat; assay type: in vivo; conditions: for Body weight, Grouping day (D 0, g): D 0, before treatment; for Body weight, Grouping day (D 0, g) / DAI score, Experimental day 1 (D 1, point) / DAI score, Experimental day 3 (D 3, point) / Body weight, Experimental day 5 (D 5, g): enema once a day; for Body weight, Grouping day (D 0, g) / DAI score AUC(0-14 d) (D 0-D 14) / Weight change range (D 0-D 14, %) / DAI score, Experimental day 1 (D 1, point) / DAI score, Experimental day 3 (D 3, point) / Body weight, Experimental day 5 (D 5, g) / Body weight, Experimental endpoint (D 14, g) / DAI score, Experimental endpoint (D 14, point) / Colon length (cm) / Colon ulcer and inflammation score (point) / Colon ulcer area (cm^2) / Colon weight / Colon weight/length ratio (100* g/cm) / Colonic adhesion score (point): mean ± SD; for DAI score AUC(0-14 d) (D 0-D 14) / Weight change range (D 0-D 14, %) / Body weight, Experimental endpoint (D 14, g) / DAI score, Experimental endpoint (D 14, point) / Colon length (cm) / Colon ulcer and inflammation score (point) / Colon ulcer area (cm^2) / Colon weight / Colon weight/length ratio (100* g/cm) / Colonic adhesion score (point) / Effect on disease progression of ulcerative colitis / DAI scores (in words) / Effect on weight gain inhibition / weight loss response of model animals (in words): enema once a day 14 days; for Colon length (cm) / Colon ulcer and inflammation score (point) / Colon ulcer area (cm^2) / Colon weight / Colon weight/length ratio (100* g/cm) / Colonic adhesion score (point) / Effect on colon atrophy process / colon weight/length ratio (in words) / Effect on gross colon injury status (colonic adhesion, ulcer and inflammation) and colon ulcer area (in words): experimental endpoint; for Overall therapeutic effect in the rat model of ulcerative colitis (in words) / Effect on disease progression of ulcerative colitis / DAI scores (in words) / Effect on weight gain inhibition / weight loss response of model animals (in words) / Effect on colon atrophy process / colon weight/length ratio (in words) / Effect on gross colon injury status (colonic adhesion, ulcer and inflammation) and colon ulcer area (in words): set treatment regimen; for Effect on disease progression of ulcerative colitis / DAI scores (in words) / Effect on weight gain inhibition / weight loss response of model animals (in words) / Effect on colon atrophy process / colon weight/length ratio (in words) / Effect on gross colon injury status (colonic adhesion, ulcer and inflammation) and colon ulcer area (in words): vs model control group
Source text: In this experiment, a rat model of ulcerative colitis was established by administering trinitrobenzene sulfonic acid (TNBS) to laboratory animal male SD rats for a single enema intervention. Acute colitis in rats induced by trinitrobenzene sulfonic acid (TNBS) is an immune response induced by cytokines secreted by Th1 type cells. […] This model is simple to establish and has good reproducibility. It is an experimental animal model widely used in evaluating drugs for the treatment of inflammatory bowel disease. […] During the experimental treatment period (D1-D14), the body weight and general clinical observation indicators (including but not limited to food intake, water intake, activity level and defecation, etc.) of the animals in each experimental group were dynamically collected. At the same time, based on the relevant scoring standards for the disease activity index of ulcerative colitis, the reactivity such as the weight loss degree, stool morphology and trait, and bloody stool of the animals in each experimental group after TNBS induction were scored, and the disease activity index (DAI) of ulcerative colitis was calculated, once a day for 14 consecutive days. At the end point of the experiment, colon tissues of animals in each experimental group were collected, and the length and weight of the colon were measured and then the non-autopsy images were collected. Then the colon was cut open along the intestinal wall longitudinally and autopsy images were collected. Based on the “Criteria for Scoring Gross Morphological Manifestations of the Colon”, the gross damage with respect to colon adhesions, colon ulcers and inflammation of animals in each experimental group was observed and scored. Ulcer images were collected under a stereomicroscope and the area of colon ulcer foci was calculated, followed by routine fixation.

[3] = high dose group (compound 1: 6.0 mg/kg; compound 6: 2.8 mg/kg)
[4] = low dose group (compound 1: 3.0 mg/kg; compound 6: 1.4 mg/kg)

Substance | Intestinal lumen area (pixels, mean ± SE) ([1]; 250 μg/mL in water) [pixels] | Intestinal lumen area (pixels, mean ± SE) ([1]; 500 μg/mL in water) [pixels] | Intestinal lumen area (pixels, mean ± SE) ([1]; 1000 μg/mL in water) [pixels] | Activity in relieving intestinal lumen dilatation [1] | Intestinal lumen area compared with the model control group (in words) [1] | Body weight, Grouping day (D 0, g) [2, 3] [g] | Body weight, Grouping day (D 0, g) [2, 4] [g] | DAI score AUC(0-14 d) (D 0-D 14) [2, 3] | Weight change range (D 0-D 14, %) [2, 3] [%] | DAI score AUC(0-14 d) (D 0-D 14) [2, 4] | Weight change range (D 0-D 14, %) [2, 4] [%] | DAI score, Experimental day 1 (D 1, point) [2, 3] [point] | DAI score, Experimental day 1 (D 1, point) [2, 4] [point] | DAI score, Experimental day 3 (D 3, point) [2, 3] [point] | DAI score, Experimental day 3 (D 3, point) [2, 4] [point] | Body weight, Experimental day 5 (D 5, g) [2, 3] [g] | Body weight, Experimental day 5 (D 5, g) [2, 4] [g] | Body weight, Experimental endpoint (D 14, g) [2, 3] [g] | DAI score, Experimental endpoint (D 14, point) [2, 3] [point] | Body weight, Experimental endpoint (D 14, g) [2, 4] [g] | further results
H-KEPVPQAKPRKVAAQ-OH [Compound 1] | 39333 ± 2095 | 26497 ± 1245 | 26174 ± 1898 | *** (*** p < 0.001) | significant statistical differences compared with the model control group | 279.99 ± 10.57 | 274.40 ± 9.10 | 30.65 ± 2.93^####+++ | 6.97 ± 4.73 | 37.65 ± 3.60 | 7.96 ± 7.32 | 3.9 ± 0.6 | 3.5 ± 1.3 | 4.3 ± 1.8 | 4.9 ± 1.6 | 263.90 ± 15.38 | 251.65 ± 18.30 | 299.37 ± 14.64 | 0.1 ± 0.3 | 296.07 ± 19.58 | DAI score, Experimental endpoint (D 14, point) [2, 4]: 0.5 ± 0.7 point; Colon length (cm) [2, 3]: 16.55 ± 1.67 cm; Colon ulcer and inflammation score (point) [2, 3]: 1.40 ± 0.84^####++ point; Colon ulcer area (cm^2) [2, 3]: 2.15 ± 0.74^###+ cm^2; Colon weight [2, 3]: 2.20 ± 0.28 g; Colon weight/length ratio (100* g/cm) [2, 3]: 13.37 ± 1.93^####+ 100* g/cm; Colonic adhesion score (point) [2, 3]: 0.60 ± 0.52 point; Colon length (cm) [2, 4]: 15.34 ± 1.99 cm; Colon ulcer and inflammation score (point) [2, 4]: 2.50 ± 0.85 point; Colon ulcer area (cm^2) [2, 4]: 3.77 ± 1.91^# cm^2; Colon weight [2, 4]: 2.48 ± 0.46 g; Colon weight/length ratio (100* g/cm) [2, 4]: 16.40 ± 3.29^### 100* g/cm; Colonic adhesion score (point) [2, 4]: 1.10 ± 0.57 point; Overall therapeutic effect in the rat model of ulcerative colitis (in words) [2]: significant therapeutic effects; Effect on disease progression of ulcerative colitis / DAI scores (in words) [2]: significant improvement effect on the disease progression of ulcerative colitis; Effect on weight gain inhibition / weight loss response of model animals (in words) [2]: significant effect of improving the weight gain inhibition; also recorded: significant improvement effect on the weight loss response; Effect on colon atrophy process / colon weight/length ratio (in words) [2]: colon weight/length ratio was significantly decreased; Effect on gross colon injury status (colonic adhesion, ulcer and inflammation) and colon ulcer area (in words) [2]: obvious therapeutic effects; also recorded: significant therapeutic effects on the gross damage manifestation of the colon
EPVPQAK [Compound 6] | 53093 ± 3839 | 45831 ± 3894 | 28429 ± 3711 | ** (** p < 0.01) | significant statistical differences compared with the model control group | 275.55 ± 7.92 | 276.61 ± 9.81 | 39.55 ± 3.99^####++++ | 1.50 ± 10.78 | 49.65 ± 3.95 | 0.48 ± 9.87 | 4.2 ± 0.8 | 3.9 ± 0.9 | 4.8 ± 1.0 | 5.0 ± 1.7 | 246.74 ± 22.76 | 243.72 ± 22.18 | 279.67 ± 30.93 | 0.7 ± 1.2 | 277.96 ± 29.18 | DAI score, Experimental endpoint (D 14, point) [2, 4]: 1.3 ± 1.2 point; Colon length (cm) [2, 3]: 13.89 ± 1.60 cm; Colon ulcer and inflammation score (point) [2, 3]: 2.50 ± 1.43 point; Colon ulcer area (cm^2) [2, 3]: 3.66 ± 2.36^# cm^2; Colon weight [2, 3]: 2.41 ± 0.63 g; Colon weight/length ratio (100* g/cm) [2, 3]: 17.70 ± 5.71# 100* g/cm; Colonic adhesion score (point) [2, 3]: 1.30 ± 0.82 point; Colon length (cm) [2, 4]: 13.37 ± 1.40 cm; Colon ulcer and inflammation score (point) [2, 4]: 3.00 ± 0.94 point; Colon ulcer area (cm^2) [2, 4]: 3.46 ± 2.06^## cm^2; Colon weight [2, 4]: 2.23 ± 0.39 g; Colon weight/length ratio (100* g/cm) [2, 4]: 16.93 ± 3.87^## 100* g/cm; Colonic adhesion score (point) [2, 4]: 1.70 ± 0.67 point; Overall therapeutic effect in the rat model of ulcerative colitis (in words) [2]: significant therapeutic effects; Effect on disease progression of ulcerative colitis / DAI scores (in words) [2]: significant improvement effect on the disease progression of ulcerative colitis; Effect on weight gain inhibition / weight loss response of model animals (in words) [2]: no obvious improved therapeutic effect; also recorded: did not show a significant weight improvement effect; Effect on colon atrophy process / colon weight/length ratio (in words) [2]: colon weight/length ratio was significantly decreased; Effect on gross colon injury status (colonic adhesion, ulcer and inflammation) and colon ulcer area (in words) [2]: obvious therapeutic effects; also recorded: significant therapeutic effects on the gross damage manifestation of the colon
